# Earlier results, collected in patent US20040054001A1, “Fumaric acid derivatives as nf-kappab inhibitors” (priority 2001, published 2004).
# Tested on: Ehrlich ascites tumour
# Details: mice; cited from earlier work
compound,measurement,value
O=C(O)/C=C/C(=O)O [fumaric acid],growth of the Ehrlich ascites tumour,inhibits
